Results on one compound are retold here after ChEMBL document CHEMBL1914396, “Solid-state NMR analysis of interaction sites of curcumin and 42-residue amyloid β-protein fibrils” (Bioorg Med Chem, 2011).

The nature of assay [1]: Binding affinity to A2 of [13C]-labelled N-terminus amyloid beta (1 to 42) fibrils after 48 hrs by 2D-DARR spectroscopy.
Assay [2] is described as follows: Binding affinity to G9 of [13C]-labelled N-terminus amyloid beta (1 to 42) fibrils after 48 hrs by 2D-DARR spectroscopy.
A short description of assay [3]: Binding affinity to F4 of [13C]-labelled N-terminus amyloid beta (1 to 42) fibrils after 48 hrs by 2D-DARR spectroscopy.
Assay [4] in a line: Binding affinity to [13C]-labelled at 17-21 positions of amyloid beta (1 to 42) fibrils after 48 hrs by 2D-DARR spectroscopy.
Assay [5] in a line: Binding affinity to [13C]-labelled amyloid beta (1 to 42) fibrils assessed as change in morphology of fibrillation at 50 uM after 1 hr using uranyl acetate dye by Transmission electron microscopy.
Assay [6] can be described thus: Binding affinity to V12 of [13C]-labelled N-terminus amyloid beta (1 to 42) fibrils after 48 hrs by 2D-DARR spectroscopy.
The nature of assay [7]: Binding affinity to [13C]-labelled at 17-21 positions of amyloid beta (1 to 42) fibrils by NMR spectroscopy.

Active and inactive are the calls of the source. No cut-off for these calls is given here.

As for `COc1cc(/C=C/C(=O)CC(=O)/C=C/c2ccc(O)c(OC)c2)ccc1O`, the outcome in assay [1], in assay [2], in assay [3] and in assay [5] was inactive. The result in assay [4], in assay [6] and in assay [7] was Active.
